Measured values: paper PMC7525151 (Frontiers in Microbiology, 2020)

Key:
CmFUM = molecular target: T1, CmFUM (Cyanidioschyzon merolae, UniProt M1VAI8); test: A240 absorbance, Michaelis-Menten fit; type: biochemical; conditions: fumarate hydration; 100 mM Tris-HCl pH 7.5; 52 °C
T1 construct: gene CYME_CMD058C; N-terminal GST tag (pGEX6P-1, BamHI-XhoI) kept; codon-optimized synthetic gene; E. coli BL21(DE3); glutathione-Sepharose purified

TeFum [1] = molecular target: T2, TeFum (Thermosynechococcus vestitus, UniProt Q8DIP7); test: A240 absorbance, Michaelis-Menten fit; type: biochemical; set-up: gene fumC; N-terminal GST tag (pGEX6P-1, BamHI-XhoI) kept; codon-optimized synthetic gene; E. coli BL21(DE3); glutathione-Sepharose purified; conditions: fumarate hydration; 100 mM Tris-HCl pH 7.0; 50 °C
T2 sequence (Q8DIP7 whole entry): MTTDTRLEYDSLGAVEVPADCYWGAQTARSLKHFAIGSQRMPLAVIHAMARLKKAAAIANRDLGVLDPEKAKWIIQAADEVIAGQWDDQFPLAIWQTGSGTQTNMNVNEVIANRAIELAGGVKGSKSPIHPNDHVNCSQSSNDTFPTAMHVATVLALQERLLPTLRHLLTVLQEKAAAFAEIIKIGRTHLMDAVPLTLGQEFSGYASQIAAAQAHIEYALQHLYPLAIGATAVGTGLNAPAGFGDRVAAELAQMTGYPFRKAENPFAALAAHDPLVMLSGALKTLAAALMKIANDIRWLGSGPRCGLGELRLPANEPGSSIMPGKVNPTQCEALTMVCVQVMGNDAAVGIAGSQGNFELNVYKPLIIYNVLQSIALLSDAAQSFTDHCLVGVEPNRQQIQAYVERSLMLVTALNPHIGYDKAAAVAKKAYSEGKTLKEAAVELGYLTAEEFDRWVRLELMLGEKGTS

TeFum [2] = molecular target: T2, TeFum; test: relative activity with effector, A240 absorbance; set-up: gene fumC; conditions: activator in the fumarate direction; 0.14 mM fumarate, pH 7.0, 50 °C; sodium salt

T1 sequence (M1VAI8 1-553): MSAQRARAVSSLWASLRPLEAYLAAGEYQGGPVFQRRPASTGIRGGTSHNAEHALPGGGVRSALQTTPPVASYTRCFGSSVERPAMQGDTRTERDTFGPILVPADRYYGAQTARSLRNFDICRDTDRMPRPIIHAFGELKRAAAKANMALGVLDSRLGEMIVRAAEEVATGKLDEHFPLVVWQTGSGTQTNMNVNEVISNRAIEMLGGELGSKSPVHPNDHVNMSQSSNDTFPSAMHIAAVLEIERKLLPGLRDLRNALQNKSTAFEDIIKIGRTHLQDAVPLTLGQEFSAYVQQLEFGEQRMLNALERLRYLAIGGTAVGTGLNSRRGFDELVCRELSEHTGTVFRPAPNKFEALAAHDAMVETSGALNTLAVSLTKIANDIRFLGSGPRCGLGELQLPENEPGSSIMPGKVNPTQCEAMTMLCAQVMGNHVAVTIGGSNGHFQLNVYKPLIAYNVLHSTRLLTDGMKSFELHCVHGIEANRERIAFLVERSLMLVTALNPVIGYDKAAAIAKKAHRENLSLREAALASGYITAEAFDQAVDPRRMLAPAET

SMILES	Km (CmFUM)	Km (TeFum [1])	relative activity (TeFum [2])
O=C(O)/C=C/C(=O)O [fumarate]	270 ± 50 µM	140 ± 20 µM	–
CC(=O)C(=O)O [pyruvate]	–	–	pyruvate increased the TeFum activity for fumarate (Figure 4B).
